This passage reports IC50 results from ChEMBL document CHEMBL1136606, “Design and synthesis of bicyclic pyrimidinone-based HCV NS3 protease inhibitors” (Bioorg Med Chem Lett, 2003).

This assay addresses NS3 (Hepatitis C virus, UniProt A3EZJ3). Description: Inhibitory activity hepatitis C virus NS3 protease. Also noted: species or system Hepacivirus hominis.

Chain of NS3 (A3EZJ3 whole entry): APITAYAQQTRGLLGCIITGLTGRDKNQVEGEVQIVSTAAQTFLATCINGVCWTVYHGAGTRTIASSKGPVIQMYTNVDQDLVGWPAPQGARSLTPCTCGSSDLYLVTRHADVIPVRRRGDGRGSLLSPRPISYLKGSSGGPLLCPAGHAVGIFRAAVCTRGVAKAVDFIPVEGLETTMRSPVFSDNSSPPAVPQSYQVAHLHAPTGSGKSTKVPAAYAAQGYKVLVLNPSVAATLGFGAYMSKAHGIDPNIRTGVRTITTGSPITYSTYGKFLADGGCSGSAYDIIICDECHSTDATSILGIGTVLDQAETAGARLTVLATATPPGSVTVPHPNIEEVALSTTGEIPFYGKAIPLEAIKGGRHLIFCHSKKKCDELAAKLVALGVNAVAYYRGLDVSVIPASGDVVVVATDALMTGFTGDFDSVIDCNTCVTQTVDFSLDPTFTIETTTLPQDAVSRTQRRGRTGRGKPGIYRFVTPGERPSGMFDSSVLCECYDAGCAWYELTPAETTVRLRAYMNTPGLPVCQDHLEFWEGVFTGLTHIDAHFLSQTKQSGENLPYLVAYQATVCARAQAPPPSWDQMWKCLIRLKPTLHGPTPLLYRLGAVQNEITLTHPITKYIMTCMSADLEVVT

For orientation: IC50 means the concentration needed to halve the response being measured. Lower therefore signals greater potency. Molecule `CC[C@H](NC(=O)[C@@H]1C[C@@](C)(NC(=O)Nc2cccc(C(=O)OC)c2)c2ncc(NCc3cccc(C(F)(F)F)c3)c(=O)n21)B1OC2C3CC(C[C@]2(C)O1)C3(C)C` (some centres not stated) displayed an IC50 of 1770 nM. To `CC[C@H](NC(=O)[C@@H]1C[C@@](C)(NC(=O)Nc2ccccc2Cl)c2ncc(NCc3cccc(C(F)(F)F)c3)c(=O)n21)B1OC2C3CC(C[C@]2(C)O1)C3(C)C` (some centres not stated) belongs 370 nM; to `CC[C@H](NC(=O)[C@@H]1C[C@@](C)(NC(=O)Cc2ccccc2)c2ncc(NCc3cccc(C(F)(F)F)c3)c(=O)n21)B1OC2C3CC(C[C@]2(C)O1)C3(C)C` (some centres not stated), 2400 nM. With `CC[C@H](NC(=O)[C@@H]1C[C@@](C)(CC(=O)Nc2nccc3ccccc23)c2ncc(NCc3cccc(C(F)(F)F)c3)c(=O)n21)B1OC2C3CC(C[C@]2(C)O1)C3(C)C` (some centres not stated), the IC50 is 440 nM. As for `CC[C@H](NC(=O)[C@@H]1C[C@@](C)(NC(=O)Oc2ccccc2)c2ncc(NCc3cccc(C(F)(F)F)c3)c(=O)n21)B1OC2C3CC(C[C@]2(C)O1)C3(C)C` (some centres not stated), the IC50 came out at 1400 nM. As for `CC[C@H](NC(=O)[C@@H]1C[C@@](C)(CC(=O)Nc2ccccc2C(N)=O)c2ncc(NCc3cccc(C(F)(F)F)c3)c(=O)n21)B1OC2C3CC(C[C@]2(C)O1)C3(C)C` (some centres not stated), the figure is 150 nM. To `CCOC(=O)c1ccccc1NC(=O)N[C@]1(C)C[C@@H](C(=O)N[C@@H](CC)B2OC3C4CC(C[C@]3(C)O2)C4(C)C)n2c1ncc(NCc1cccc(C(F)(F)F)c1)c2=O` (some centres not stated) belongs 100 nM.

`CC[C@H](NC(=O)[C@@H]1CCc2ncc(NCc3cccc(C(F)(F)F)c3)c(=O)n21)B1OC2C3CC(C[C@]2(C)O1)C3(C)C` (some centres not stated) returned an IC50 of 7000 nM. To `CC[C@H](NC(=O)[C@@H]1C[C@@](C)(NC(=O)Nc2cccc3ccccc23)c2ncc(NCc3cccc(C(F)(F)F)c3)c(=O)n21)B1OC2C3CC(C[C@]2(C)O1)C3(C)C` (some centres not stated) belongs 270 nM; to `CC[C@H](NC(=O)[C@@H]1C[C@@](C)(NC(=O)Nc2ccc(Cl)cc2)c2ncc(NCc3cccc(C(F)(F)F)c3)c(=O)n21)B1OC2C3CC(C[C@]2(C)O1)C3(C)C` (some centres not stated), 1100 nM.

As to `CC[C@H](NC(=O)[C@@H]1C[C@@](C)(CC(=O)Nc2cccc3ccccc23)c2ncc(NCc3cccc(C(F)(F)F)c3)c(=O)n21)B1OC2C3CC(C[C@]2(C)O1)C3(C)C` (some centres not stated), the midpoint of inhibition, the IC50, lay at 170 nM. Molecule `CC[C@H](NC(=O)[C@@H]1C[C@@](C)(CC(=O)Nc2ccccc2[N+](=O)[O-])c2ncc(NCc3cccc(C(F)(F)F)c3)c(=O)n21)B1OC2C3CC(C[C@]2(C)O1)C3(C)C` (some centres not stated) had an IC50 of 2530 nM. As for `CCOC(=O)c1cccc(NC(=O)N[C@]2(C)C[C@@H](C(=O)N[C@@H](CC)B3OC4C5CC(C[C@]4(C)O3)C5(C)C)n3c2ncc(NCc2cccc(C(F)(F)F)c2)c3=O)c1` (some centres not stated), the figure is 1550 nM. In the case of `CC[C@H](NC(=O)[C@@H]1C[C@@](C)(NC(=O)Nc2ccccc2Oc2ccccc2)c2ncc(NCc3cccc(C(F)(F)F)c3)c(=O)n21)B1OC2C3CC(C[C@]2(C)O1)C3(C)C` (some centres not stated), the IC50 turned out to be 300 nM.

With `CC[C@H](NC(=O)[C@@H]1C[C@@](C)(CC(=O)Nc2ccccc2)c2ncc(NCc3cccc(C(F)(F)F)c3)c(=O)n21)B1OC2C3CC(C[C@]2(C)O1)C3(C)C` (some centres not stated), the IC50 came to 170 nM. The molecule `CC[C@H](NC(=O)[C@@H]1C[C@@](C)(CC(=O)Nc2ccccc2C(=O)NC)c2ncc(NCc3cccc(C(F)(F)F)c3)c(=O)n21)B1OC2C3CC(C[C@]2(C)O1)C3(C)C` (some centres not stated) gave an IC50 of 180 nM.

The molecule `CC[C@H](NC(=O)[C@@H]1C[C@@](C)(NC(=O)Nc2ccccc2-c2ccccc2)c2ncc(NCc3cccc(C(F)(F)F)c3)c(=O)n21)B1OC2C3CC(C[C@]2(C)O1)C3(C)C` (some centres not stated) showed an IC50 of 30000 nM.

In the case of `CC[C@H](NC(=O)[C@@H]1C[C@@](C)(CC(=O)Nc2ccccc2C(=O)N(C)C)c2ncc(NCc3cccc(C(F)(F)F)c3)c(=O)n21)B1OC2C3CC(C[C@]2(C)O1)C3(C)C` (some centres not stated), the IC50 amounted to 1460 nM.

On to `CC[C@H](NC(=O)[C@@H]1C[C@@](C)(NC(=O)c2ccccc2)c2ncc(NCc3cccc(C(F)(F)F)c3)c(=O)n21)B1OC2C3CC(C[C@]2(C)O1)C3(C)C` (some centres not stated), for which the IC50 was found to be 3400 nM. To `CC[C@H](NC(=O)[C@@H]1C[C@@](C)(NC(=O)Nc2ccc(F)cc2)c2ncc(NCc3cccc(C(F)(F)F)c3)c(=O)n21)B1OC2C3CC(C[C@]2(C)O1)C3(C)C` (some centres not stated) belongs 1030 nM; to `CC[C@H](NC(=O)[C@@H]1C[C@@](C)(CC(=O)Nc2ccccc2C(=O)OC)c2ncc(NCc3cccc(C(F)(F)F)c3)c(=O)n21)B1OC2C3CC(C[C@]2(C)O1)C3(C)C` (some centres not stated), 100 nM; to `CC[C@H](NC(=O)[C@@H]1C[C@@](C)(NC(=O)Nc2ccccc2SC)c2ncc(NCc3cccc(C(F)(F)F)c3)c(=O)n21)B1OC2C3CC(C[C@]2(C)O1)C3(C)C` (some centres not stated), 710 nM. `CC[C@H](NC(=O)[C@@H]1C[C@@](C)(NC(=O)Nc2ccccc2)c2ncc(NCc3cccc(C(F)(F)F)c3)c(=O)n21)B1OC2C3CC(C[C@]2(C)O1)C3(C)C` (some centres not stated) displayed an IC50 of 790 nM. With `CC[C@H](NC(=O)[C@@H]1C[C@@](C)(NC(=O)Nc2ccccc2C)c2ncc(NCc3cccc(C(F)(F)F)c3)c(=O)n21)B1OC2C3CC(C[C@]2(C)O1)C3(C)C` (some centres not stated), the IC50 came to 780 nM. As for `CC[C@H](NC(=O)[C@@H]1C[C@@](C)(NC(=O)Nc2ccccc2C(=O)OC)c2ncc(NCc3cccc(C(F)(F)F)c3)c(=O)n21)B1OC2C3CC(C[C@]2(C)O1)C3(C)C` (some centres not stated), the IC50 came out at 80 nM. As for `CC[C@H](NC(=O)[C@@H]1C[C@@](C)(NC(=O)Nc2cccc(F)c2)c2ncc(NCc3cccc(C(F)(F)F)c3)c(=O)n21)B1OC2C3CC(C[C@]2(C)O1)C3(C)C` (some centres not stated), half-maximal inhibition (IC50) required 500 nM.

Consider `CC[C@H](NC(=O)[C@@H]1C[C@@](C)(NC(=O)Nc2ccccc2OC)c2ncc(NCc3cccc(C(F)(F)F)c3)c(=O)n21)B1OC2C3CC(C[C@]2(C)O1)C3(C)C` (some centres not stated), for which 360 nM corresponded to half-maximal inhibition (IC50). `CC[C@H](NC(=O)[C@@H]1C[C@@](C)(NC(=O)NCc2ccccc2)c2ncc(NCc3cccc(C(F)(F)F)c3)c(=O)n21)B1OC2C3CC(C[C@]2(C)O1)C3(C)C` (some centres not stated) displayed an IC50 of 1200 nM. As for `CCOC(=O)c1ccc(NC(=O)N[C@]2(C)C[C@@H](C(=O)N[C@@H](CC)B3OC4C5CC(C[C@]4(C)O3)C5(C)C)n3c2ncc(NCc2cccc(C(F)(F)F)c2)c3=O)cc1` (some centres not stated), the figure is 1100 nM; as for `CC[C@H](NC(=O)[C@@H]1C[C@@](C)(CC(=O)Nc2ccccc2OC)c2ncc(NCc3cccc(C(F)(F)F)c3)c(=O)n21)B1OC2C3CC(C[C@]2(C)O1)C3(C)C` (some centres not stated), 200 nM. As for `CC[C@H](NC(=O)[C@@H]1C[C@@](C)(CC(=O)Nc2cccc(SC)c2)c2ncc(NCc3cccc(C(F)(F)F)c3)c(=O)n21)B1OC2C3CC(C[C@]2(C)O1)C3(C)C` (some centres not stated), the figure is 90 nM; as for `CCOc1ccccc1NC(=O)N[C@]1(C)C[C@@H](C(=O)N[C@@H](CC)B2OC3C4CC(C[C@]3(C)O2)C4(C)C)n2c1ncc(NCc1cccc(C(F)(F)F)c1)c2=O` (some centres not stated), 160 nM. To `CC[C@H](NC(=O)[C@@H]1C[C@@](C)(NC(=O)Nc2cccc(SC)c2)c2ncc(NCc3cccc(C(F)(F)F)c3)c(=O)n21)B1OC2C3CC(C[C@]2(C)O1)C3(C)C` (some centres not stated) belongs 130 nM. `CC[C@H](NC(=O)[C@@H]1C[C@@](C)(NC(=O)Nc2ccccc2C(=O)O)c2ncc(NCc3cccc(C(F)(F)F)c3)c(=O)n21)B1OC2C3CC(C[C@]2(C)O1)C3(C)C` (some centres not stated) registered an IC50 of 6400 nM.

On to `CC[C@H](NC(=O)[C@@H]1C[C@@](C)(NC(=O)Nc2ccccc2[N+](=O)[O-])c2ncc(NCc3cccc(C(F)(F)F)c3)c(=O)n21)B1OC2C3CC(C[C@]2(C)O1)C3(C)C` (some centres not stated), for which the IC50 is 180 nM.

Turning to `CC[C@H](NC(=O)[C@@H]1C[C@@](C)(NC(=O)Nc2ccc(Oc3ccccc3)cc2)c2ncc(NCc3cccc(C(F)(F)F)c3)c(=O)n21)B1OC2C3CC(C[C@]2(C)O1)C3(C)C` (some centres not stated), the IC50 came to 4740 nM. Consider `CC[C@H](NC(=O)[C@@H]1C[C@@](C)(NC(=O)Nc2ccc(SC)cc2)c2ncc(NCc3cccc(C(F)(F)F)c3)c(=O)n21)B1OC2C3CC(C[C@]2(C)O1)C3(C)C` (some centres not stated), for which the IC50 came to 2360 nM.
